The values that follow come from patent US20090258836A1, “EFFECTIVE DELIVERY OF CROSS-SPECIES A3 ADENOSINE-RECEPTOR ANTAGONISTS TO REDUCE INTRAOCULAR PRESSURE” (The Trustees of The University of Pennsylvania, priority 2006, published 2009).

For test [1], the system named is mouse IOP. As to the kind of experiment: Mouse IOP after topical application, invasive servo-null micropipette system (SNMS). Format: in vivo, Black Swiss mice. Conditions: endpoint 10 min. A digest of the protocol: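 Black Swiss outbred mice, 7-9 weeks, under i.p. ketamine plus topical proparacaine. Drugs applied topically as droplets with <2% DMSO (none for hydrophilic compounds) and 0.0005% benzalkonium chloride, 295-300 mOsm. IOP measured invasively by servo-null micropipette 10 min after a single application.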

Test [2] has as its system mouse IOP. As to the kind of experiment: Mouse IOP after topical application, non-invasive pneumotonometry. It counts as in vivo, Black Swiss mice. A digest of the protocol:
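Black Swiss outbred mice (7-9 weeks, mixed sex) under intraperitoneal ketamine plus topical proparacaine 0.5%. Drugs applied topically as […] droplets three times, containing <2% DMSO and 0.0005% benzalkonium chloride; IOP measured non-invasively by pneumotonometry at 10-min intervals from a stereotactically fixed probe position.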

Test [3] deals with T1, human A2B adenosine receptor (Homo sapiens, UniProt P29275).
T1 construct: expressed in transfected cells; host or cells: CHO cells (stably transfected)
T1 sequence (P29275 1-332): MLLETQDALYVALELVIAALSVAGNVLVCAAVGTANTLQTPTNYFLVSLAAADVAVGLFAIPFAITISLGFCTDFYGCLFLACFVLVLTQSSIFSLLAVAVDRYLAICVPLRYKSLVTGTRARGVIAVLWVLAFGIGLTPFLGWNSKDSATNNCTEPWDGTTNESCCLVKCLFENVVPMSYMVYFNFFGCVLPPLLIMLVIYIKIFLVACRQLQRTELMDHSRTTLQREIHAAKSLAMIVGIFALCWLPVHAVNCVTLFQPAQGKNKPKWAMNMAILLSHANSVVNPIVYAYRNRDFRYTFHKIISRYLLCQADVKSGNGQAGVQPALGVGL
Description: Potency at human A2B adenosine receptor. Conditions: at 10 μM. It counts as binding.

The target in the next test is T2, rat A3 receptors (Rattus norvegicus, UniProt P28647).
T2 construct: expressed in transfected cells; host or cells: CHO cells (stably transfected)
T2 sequence (P28647 1-320): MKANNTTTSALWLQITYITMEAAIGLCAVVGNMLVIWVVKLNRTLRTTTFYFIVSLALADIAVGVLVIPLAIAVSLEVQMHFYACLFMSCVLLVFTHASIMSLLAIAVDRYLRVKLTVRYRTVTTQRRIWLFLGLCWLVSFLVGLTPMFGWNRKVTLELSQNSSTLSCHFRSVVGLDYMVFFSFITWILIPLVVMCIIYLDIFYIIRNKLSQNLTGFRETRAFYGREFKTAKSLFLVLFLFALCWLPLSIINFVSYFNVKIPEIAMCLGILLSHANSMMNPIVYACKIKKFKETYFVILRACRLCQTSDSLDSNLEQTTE
Description: Radioligand binding, [125I]AB-MECA, CHO cells. Conditions: means±SEM, N=3-4.

Turning to `OC1CSC(n2cnc3c(NCc4cccc(I)c4)nc(Cl)nc32)C1O` (stereo not shown) [MRS-3820, 2-(2-chloro-6-(3-iodobenzylamino)-9H-purin-9-yl)tetrahydrothiophene-3,4-diol], the “Δ(IOP) Servo-Null” value with mouse IOP [1] (topical droplet 5 μM (0.2% DMSO)) was −2.2 ± 0.7 mm Hg; with mouse IOP [1] (topical droplet 25 μM (0.2% DMSO)) it was −4.9 ± 1.7 mm Hg; in the test with mouse IOP [1] (topical droplet 75 μM (0.6% DMSO)) it was −3.1 ± 1.4 mm Hg; in the test with mouse IOP [1] (topical droplet 250 μM (2% DMSO)) it was −1.5 ± 0.6 mm Hg. The “time to significant reduction of non-invasively measured IOP” value with mouse IOP [2] (250 μM droplet) is ≤ 20 min. The “reduction in IOP 30 minutes post-administration” value in the test on mouse IOP [2] (250 μM droplet, normal mice, non-invasive, baseline 16.7±1.1) came out at 4.2±0.7 mmHg. In addition, the “reduction in IOP 20 min following application” value in the test with mouse IOP [2] (250 μM, non-invasive) is on record as 3.4±0.7 mm Hg. The “Δ(IOP) Pneumotonometer” value with mouse IOP [2] (topical droplets 25 μM (0.2% DMSO), 30 min) is listed as −0.6 ± 1.5 mm Hg. In addition, in test [3], the “potency at A2B” value was < 10%. The inhibition constant (Ki) (commonly the dissociation constant of the complex between target and ligand, obtained from inhibition or displacement) on rat A3 receptors is 3.9 ± 1.2 nM.
